Data taken from publication PMC5699961 (Clinical pharmacokinetics, 2018).
Read-outs that look alike come from different tables or passages of the source.

Columns and labels:
[1] = test system: patients with solid tumors; details: cited from earlier work
blood brain barrier = details: swine subjected to TBI and hemorrhagic shock; cited from earlier work
[2] = test system: swine subjected to hemorrhage and polytrauma; details: intravenous VPA, absence of isotonic fluid resuscitation; cited from earlier work
[3] = 140 mg/kg dose, oral dosing; cited from earlier work
healthy subjects = test: Exposure-safety analysis; type: in vivo, human
[4] = Single-dose plasma pharmacokinetics of intravenous VPA; details: for concentration at 24 h / AUC / AUC(0-inf) / Cmax / half-life: human, plasma; for concentration at 24 h: intravenous; for AUC / AUC(0-inf) / Cmax / half-life: iv
[5] = 2-Compartment population model (final model), mean (SD)
[6] = 3-Compartment population model, mean (SD)

Compound: CCCC(CCC)C(=O)O [VPA, valproic acid]
- Maximum tolerated dose (MTD) ([1]; cancer patients, intravenous, daily for five days): 60 mg/kg/day
- Previously established maximum tolerated single intravenous dose ([1]; ref 21): 60 mg/kg
- Previously established maximum intravenous dose ([1]; ref 22): 75 mg
- Previously established maximum tolerated single intravenous dose ([1]; ref 22): 75 mg/kg
- Expression of tight-junction and basement membrane associated proteins (zona occludin-1, laminin, claudin-5) (blood brain barrier): increased expression
- Decrease in mortality [2]: 50%
- Peak plasma concentrations [3]: 300 to 400 µg/mL
- Dose breakpoint for occurrence of adverse events (healthy subjects; Chills): > 6597 mg
- Dose breakpoint for occurrence of adverse events (healthy subjects; Hearing adverse events): > 3222 mg
- Q1, intercompartmental clearance between central and first peripheral compartment [4, 5]: 0.64 (0.32) L/h
- Vc, volume of distribution of the central compartment [4, 5]: 11.1 (2.62) L
- Vp1, volume of distribution of the first peripheral compartment [4, 5]: 7.70 (3.28) L
- Q1, intercompartmental clearance between central and first peripheral compartment [4, 6]: 0.62 (0.29) L/h
- Q2, intercompartmental clearance between central and second peripheral compartment [4, 6]: 3.48(1.47) L/h
- Vp1, volume of distribution of the first peripheral compartment [4, 6]: 7.63 (3.29) L
- Vp2, volume of distribution of the second peripheral compartment [4, 6]: 0.32(0.06) L
- concentration at 24 h ([4]; 15 mg/kg): 22.6 µg/mL
- concentration at 24 h ([4]; 30 mg/kg): 39.5 µg/mL
- concentration at 24 h ([4]; 60 mg/kg): 39.8 µg/mL
- concentration at 24 h ([4]; 90 mg/kg): 56.9 µg/mL
- concentration at 24 h ([4]; 120 mg/kg): 49.7 µg/mL
- concentration at 24 h ([4]; 130 mg/kg): 97.2 µg/mL
- concentration at 24 h ([4]; 140 mg/kg): 140 µg/mL
- concentration at 24 h ([4]; 150 mg/kg): 81.4 µg/mL
- AUC ([4]; 15 mg/kg): 1180 µg·h/mL
- AUC(0-inf) ([4]; 15 mg/kg): 1710 µg·h/mL
- Cmax ([4]; 15 mg/kg): 112 µg/mL
- half-life ([4]; 15 mg/kg): 12.1 h
- AUC ([4]; 30 mg/kg): 2200 µg·h/mL
- AUC(0-inf) ([4]; 30 mg/kg): 3390 µg·h/mL
- Cmax ([4]; 30 mg/kg): 235 µg/mL
- half-life ([4]; 30 mg/kg): 12.1 h
- AUC ([4]; 60 mg/kg): 2240 µg·h/mL
- AUC(0-inf) ([4]; 60 mg/kg): 3040 µg·h/mL
- Cmax ([4]; 60 mg/kg): 248 µg/mL
- half-life ([4]; 60 mg/kg): 11.3 h
- AUC ([4]; 90 mg/kg): 4630 µg·h/mL
- AUC(0-inf) ([4]; 90 mg/kg): 5810 µg·h/mL
- Cmax ([4]; 90 mg/kg): 541 µg/mL
- half-life ([4]; 90 mg/kg): 8.9 h
- AUC ([4]; 120 mg/kg): 3840 µg·h/mL
- AUC(0-inf) ([4]; 120 mg/kg): 4980 µg·h/mL
- Cmax ([4]; 120 mg/kg): 537 µg/mL
- half-life ([4]; 120 mg/kg): 9 h
- AUC ([4]; 130 mg/kg): 7740 µg·h/mL
- AUC(0-inf) ([4]; 130 mg/kg): 11300 µg·h/mL
- Cmax ([4]; 130 mg/kg): 855 µg/mL
- half-life ([4]; 130 mg/kg): 8.8 h
- AUC ([4]; 140 mg/kg): 9870 µg·h/mL
- AUC(0-inf) ([4]; 140 mg/kg): 13500 µg·h/mL
- Cmax ([4]; 140 mg/kg): 1270 µg/mL
- half-life ([4]; 140 mg/kg): 9.7 h
- AUC ([4]; 150 mg/kg): 6910 µg·h/mL
- AUC(0-inf) ([4]; 150 mg/kg): 8520 µg·h/mL
- Cmax ([4]; 150 mg/kg): 694 µg/mL
- half-life ([4]; 150 mg/kg): 7.9 h
